# Assay results published in patent US8476272B2, “Pharmaceutical composition for treatment of type 2 diabetes” (Jiangsu Hengrui Medicine Co., Ltd., priority 2010, dated 2013).
# Assays:
# [1] = tested on: genetic fatty Wistar rats with diabetes; experiment: 14-day administration to genetic fatty Wistar rats with diabetes: plasma glucose and hemoglobin; format: in vivo; details: 14 days, compound A or MK-0431 10 mg/kg/day p.o., metformin 100 mg/kg/day, mean ± SD, n=5-6; for hemoglobin: hemoglobin Al
# Experimental: 14-19 week-old male Wistar rats were divided into 5 groups, 5-6 each group. […] Blood was collected from caudal vein. The plasma glucose and hemoglobin Al were determined respectively with a commercial kit (NC-ROPET, Nippon Chemiphar CO.) by enzyme method.
# [2] = tested on: genetic fatty Wistar rats with diabetes; experiment: Oral glucose loading test in genetic fatty Wistar rats with diabetes after 7 days of administration; format: in vivo; details: phosphates 30 mg/kg/day p.o., metformin 100 mg/kg/day, mean ± SD, n=5
# Experimental: 13-14 week-old male Wistar rats were divided into 5 groups, 5 each group. […] Oral glucosieloading test was conducted immediately after fasting overnight (2 g glucose/kg/5 ml, p.o.). Blood was collected from caudal vein before or 120 minutes and 240 minutes after the test, and plasma glucose was analyzed with enzyme method (Encore Chemical System; Baker).
# [3] = 0 min (before glucose load 2 g/kg p.o.)
# [4] = 120 min after glucose load 2 g/kg p.o.
# [5] = 240 min after glucose load 2 g/kg p.o.
smiles,measurement,setting,value
"COC(=O)c1nc(C(F)(F)F)n2c1CN(C(=O)C[C@H](N)Cc1cc(F)c(F)cc1F)CC2 [Compound A, (R)-7-[3-amino-4-(2,4,5-trifluoro-phenyl)-butyryl]-3-trifluoromethyl-5,6,7,8-tetrahydro-imidazo[1,5-a]pyrazine-1-carboxylic acid methyl ester]",plasma glucose,[1],214 ± 50
same,hemoglobin,[1],5.3 ± 0.3
CN(C)C(=N)N=C(N)N [metformin],plasma glucose,[1],327 ± 46
same,hemoglobin,[1],6.1 ± 0.6
same,plasma glucose,[2]; [3],119 ± 11 mg/dL
same,plasma glucose,[2]; [4],221 ± 62 mg/dL
same,plasma glucose,[2]; [5],107 ± 21 mg/dL
COC(=O)c1nc(C(F)(F)F)n2c1CN(C(=O)C[C@H](N)Cc1cc(F)c(F)cc1F)CC2 [phosphate of compound A],plasma glucose,[2]; [3],103 ± 11 mg/dL
same,plasma glucose,[2]; [4],137 ± 17 mg/dL
same,plasma glucose,[2]; [5],102 ± 9 mg/dL
